Laboratory results as given in PubChem BioAssay (NCI).
Several values for one entry are separate records, joined by “and”; a condition that tells them apart may be missing. Equal entries are not always repeated.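 The compound was tested at five concentrations on cells cultured in 96-well plates, with a 48-hour exposure period. GI50 = concentration required for 50% inhibition of growth. TGI is the concentration that stops growth completely.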

Key:
Assay in all cases: NCI tumour cell line growth inhibition, 48 h
SF-268 CNS = tested on: SF-268 CNS
MDA-MB-435 = tested on: MDA-MB-435
ACHN renal = tested on: ACHN renal
NCI-H522 lung = tested on: NCI-H522 lung
A498 renal = tested on: A498 renal
SN12C renal = tested on: SN12C renal
SK-MEL-2 melanoma = tested on: SK-MEL-2 melanoma
MALME-3M melanoma = tested on: MALME-3M melanoma
CCRF-CEM leukemia = tested on: CCRF-CEM leukemia
HCT-15 colon = tested on: HCT-15 colon

Row | SMILES | TGI (SF-268 CNS) [µM] | TGI (MDA-MB-435) [µM] | TGI (ACHN renal) [µM] | TGI (NCI-H522 lung) [µM] | TGI (A498 renal) [µM] | TGI (SN12C renal) [µM] | TGI (SK-MEL-2 melanoma) [µM] | TGI (MALME-3M melanoma) [µM] | TGI (CCRF-CEM leukemia) [µM] | TGI (HCT-15 colon) [µM] | GI50 (SF-268 CNS) | GI50 (MDA-MB-435) [µM] | GI50 (ACHN renal) [µM] | GI50 (NCI-H522 lung) | GI50 (A498 renal) | GI50 (SN12C renal) [µM] | GI50 (SK-MEL-2 melanoma) [µM] | GI50 (MALME-3M melanoma) [µM] | GI50 (CCRF-CEM leukemia) [µM] | GI50 (HCT-15 colon)
1 | c1c[nH]c(CN2CCN(Cc3ncc[nH]3)CC2)n1 | > 100 | > 100 | > 100 | > 100 | > 100 | > 100 | > 100 | > 100 | > 100 | > 100 |  |  |  |  |  |  |  |  |  | 
2 | O=C(c1ccco1)c1c(C(F)(F)F)n([O-])c2cc(Cl)c(Cl)cc2[n+]1=O | 0.774 | 1.81 | 1.11 | 1.33 | 3.62 | 1.41 | 8.89 | 1.81 | 9.5 | 0.654 | 0.236 µM | 0.877 | 0.443 | 0.202 µM | 1.53 µM | 0.65 | 3.07 | 0.824 | 0.384 | 0.233 µM
3 | Nc1nc(-c2ccccn2)c(-c2ccc3ncccc3n2)s1 | > 25 | > 25 | > 25 | > 25 | > 25 | > 25 | > 25 | > 25 | > 25 | > 25 | > 25 µM | > 25 | > 25 | > 25 µM | > 25 µM | > 25 | > 25 | > 25 | > 25 | > 25 µM
4 | NC1=Nc2cc(OCCCCN3Cc4ccccc4C3)c(OCC3CC3)cc2C12CCCC2 | 6.42 | 2.99 | 3.24 | 3.84 | 4.91 | 3.41 | 3.49 | 3.12 | 9.5 | 3.59 | 1.78 µM | 1.59 | 1.71 | 1.86 µM | 0.951 µM | 1.7 | 1.84 | 1.63 | 2.48 | 1.48 µM
5 | CCCCCCCCCCCCNC(=O)N[C@H](C(=O)N[C@H]1/C=C/OCCNC(=O)/C=C/[C@H](C(C)C)NC1=O)C(C)C | > 100 | > 100 | > 100 | 5.2 | 57 | > 100 | > 59.2 | > 100 | > 100 | > 100 | 7.99 µM | 1.48 | 51.3 | 0.372 µM | 7.81 µM | 23.6 | 4 | 39.3 | 2.16 | > 66.3 µM
6 | COC(=O)[C@@H](C)C[C@H](Cc1ccccc1)NC(=O)c1nc([C@@H](C[C@H](C(C)C)N(C)C(=O)[C@@H](NC(=O)[C@H]2CC(=O)CCN2C)C(C)C)OC(C)=O)sc1C(C)C | > 16.7 | 0.0921 | > 16.7 |  | 0.818 | > 16.7 | > 16.7 | > 16.7 | > 16.7 | > 16.7 | 0.531 µM | 0.0169 | 0.794 | 0.0549 µM | 0.0826 µM | 0.462 | 0.104 | 0.119 | 0.37 | 0.524 µM
7 | COc1cc(-c2nn(-c3cccc(NC(=O)NCCNC(=O)c4ccccc4)c3)cc2-c2ccncc2)ccc1Cl | > 100 | 9.29 | > 100 | 7.37 | > 100 | > 100 | 5.43 | 6.11 | > 100 | > 100 | 4.27 µM | 2.41 | 3.14 | 1.79 µM | 4.72 µM | 0.556 | 2.34 | 1.97 | 1.41 | 1.97 µM
8 | O=c1c2cc(F)ccc2sc2c(NCCCNCCO)nc3ccc(F)cc3c12 | 3.22 | 3.2 | 2.89 | 4.03 | 7.21 | 3.05 | 4.34 | 3.15 | 5.08 | 2.91 | 1.57 µM | 1.71 | 1.54 | 1.91 µM | 2.24 µM | 1.58 | 2.04 | 1.63 | 2.24 | 1.49 µM
9 | COc1cc(F)c(F)c(F)c1C(=O)c1cnc(NC2CCN(S(C)(=O)=O)CC2)nc1N | > 18.9 | 7.18 | > 25 | 15.6 | 6.69 | > 25 | 7.46 | 11.3 | > 25 | > 25 | 2.78 µM | 0.782 | 0.906 | 5.56 µM | 1.28 µM | 1.96 | 3.02 | 3.95 | 1.21 | 1.32 µM
10 | Nc1nc(N)c2nc(CNc3ccc(C(=O)NC(CCC(=O)O)C(=O)O)cc3)cnc2n1 (stereo not drawn) | > 100 | > 100 | > 100 | > 100 | > 100 | > 100 | > 100 | > 100 | > 100 | > 100 | 0.02 µM and < 0.01 µM | < 0.01 | < 0.01 | 0.0446 µM and 0.0815 µM | 0.062 µM and 0.0488 µM | < 0.01 | > 100 | 0.921 | < 0.01 | 0.0422 µM and < 0.01 µM
11 | CC[C@@]12CC(C(=O)OC)=C3Nc4ccccc4[C@@]34CCN(C[C@H]3O[C@H]31)[C@@H]24 | > 100 | 44.1 | > 100 | > 100 | > 100 | > 100 | > 100 | > 100 | > 100 | > 100 | > 100 µM | 16.2 | > 100 | 20.9 µM | 27.5 µM | > 100 | 25.1 | 30.5 | 33.9 | 33.5 µM
12 | Cc1ccc(CNc2ccc(Cl)cc2NCc2ccc(C)c(O)c2)cc1O | 14.2 | 13.1 | 12.6 | 13.9 | 16.1 | 14 | 14.5 | 14.7 | 17.2 | 12.2 | 7 µM | 6.7 | 6.19 | 6.59 µM | 8.55 µM | 6.95 | 6.82 | 6.2 | 5.02 | 5.66 µM
13 | CC(=O)O[C@@H]1[C@H]2O[C@H]2[C@H]2O[C@@]2(COC(=O)c2ccccc2)[C@H]1OC(C)=O | > 100 | > 100 | > 100 | > 100 | > 100 | > 100 | > 100 | > 100 | > 100 | > 100 |  |  |  |  |  |  |  |  |  | 
14 | CC(C)c1c(C(=O)Nc2ccccc2)c(-c2ccccc2)c(-c2ccc(F)cc2)n1CC[C@@H](O)C[C@@H](O)CC(=O)O | > 100 | > 100 | > 91.2 | > 47.3 | 4.52 | > 100 | 7.49 | > 100 | > 100 | > 100 | 6.64 µM | 15.1 | 6.67 | 3.73 µM | 0.516 µM | 7.56 | 2.24 | 52.8 | 21.4 | 7.69 µM
15 | CC(C)OC(=O)OCOP(=O)(OCOC(=O)OC(C)C)C1CCCN(O)C1=O (stereo not drawn) | > 100 | > 100 | > 100 | > 100 | 0.867 | > 100 | 20.4 | > 100 | > 100 | > 100 | 3.07 µM | 5.29 | 0.888 | 0.768 µM | 0.0732 µM | 0.281 | 3.1 | 0.856 | 0.446 | 1.85 µM
16 | O=C(/C=C/c1c[nH]c2ccccc12)c1ccccc1O | 40 | 27.9 | 25.2 | 23 | 28.5 | 28.8 | 18.6 | 29.3 |  | 21.7 |  |  |  |  |  |  |  |  |  | 
17 | CN(C)CCCn1c2c(c3ccc(N4CCNCC4)cc3c1=O)C(=O)c1ccccc1-2 | 2.72 | 2.67 | 2.63 | 2.55 |  | 1.79 | 3.38 | 3.46 | 1.94 | 3.04 | 0.95 µM | 1.2 | 0.392 | 0.96 µM |  | 0.329 | 1.71 | 1.42 | 0.335 | 0.728 µM
18 | C/C(=N\NC(N)=O)C(CN1CCOCC1)C(c1ccccc1)c1c(O)c2ccccc2oc1=O (stereo not drawn) | > 100 | > 100 | > 100 | > 100 | 91.8 |  | > 100 | > 100 | > 100 | > 100 |  |  |  |  |  |  |  |  |  | 
19 | Fc1cnccc1-c1nc2ccc3[nH]ncc3c2c2c1CCCC2 | 9.82 | > 100 | > 100 | 8.76 | 2.96 | > 100 |  | 9.06 | > 100 | > 100 | 1.99 µM | 1.25 | 0.466 | 1.31 µM | 0.7 µM | 2.14 |  | 2.76 | 1.84 | 0.844 µM
